# Measurements reported in US9012200B2, “Composition of bacterial strains, bioremediation mixture and use of this composition for the removal of contaminants from the soil and the method for purifying the soil contaminants” (priority 2012, dated 2015).
# Where two headings read alike, the source gives them in different places.
# Legend:
# Assay type in all cases: cell-based
# [1] = tested on: Achromobacter sp. strain 4P; assay: Disc diffusion antibiotic susceptibility; settings: 24 h
# Description: (§1) A disc diffusion method was performed to determine the susceptibility of bacteria to the selected antibiotics. We used discs soaked with the antibiotic of a well-defined concentration (BioMerioux) (Table 2) and the minimal inhibitory concentration test was carried out, using E-tests (Oxoid) (Table 3).
# (§2) A McFarland's 0.5 inoculum was prepared from each strain's culture, using a densitometer (EMO). Then, using sterile cotton swabs, the suspension of bacterial cells was spread on dishes with ready-to-use MHA medium (Oxoid), and after 15 minutes, discs soaked with antibiotics at defined concentrations were placed on them.
# (§3) The dishes were incubated at 25-30° C., and the results were read after 24 and 48 hours. The measure of susceptibility of a tested strain to a given antibiotic was the size of the inhibition zone which formed around the disc soaked with the antibiotic. The results read (sizes of zones measured in mm) were compared with the data contained in the European Committee on Antimicrobial Susceptibility Testing (EUCAST) standards from 2010 (Table 4).
# (§4) The measure of susceptibility of the tested bacterial strain to a given antibiotic was the size of the inhibition zone which formed around the disc (Table 5).
# [2] = tested on: Arthrobacter sp. strain 1N; assay: Disc diffusion antibiotic susceptibility
# Description: as §1, §2, §3, §4
# [3] = tested on: Brevundimonas sp. strain 2N; assay: Disc diffusion antibiotic susceptibility; settings: 24 h
# Description: as §1, §2, §3, §4
# [4] = tested on: Brevundimonas sp. strain 5N; assay: Disc diffusion antibiotic susceptibility; settings: 24 h
# Description: as §1, §2, §3, §4
# [5] = tested on: Brevundimonas sp. strain 6N; assay: Disc diffusion antibiotic susceptibility; settings: 24 h
# Description: as §1, §2, §3, §4
# [6] = tested on: Pseudomonas sp. strain 3G; assay: Disc diffusion antibiotic susceptibility; settings: 24 h
# Description: as §1, §2, §3, §4
# [7] = tested on: Pseudomonas sp. strain 4G; assay: Disc diffusion antibiotic susceptibility; settings: 24 h
# Description: as §1, §2, §3, §4
# [8] = tested on: Stenotrophomonas sp. strain 2L; assay: Disc diffusion antibiotic susceptibility
# Description: as §1, §2, §3, §4
# [9] = tested on: Stenotrophomonas sp. strain 3N; assay: Disc diffusion antibiotic susceptibility; settings: 24 h
# Description: as §1, §2, §3, §4
# [10] = tested on: Stenotrophomonas sp. strain 5L; assay: Disc diffusion antibiotic susceptibility
# Description: as §1, §2, §3, §4
# [11] = tested on: Stenotrophomonas sp. strain 6L; assay: Disc diffusion antibiotic susceptibility; settings: 24 h
# Description: as §1, §2, §3, §4
# [12] = tested on: Achromobacter sp. strain 4P; assay: Antibiotic MIC by E-test; settings: Achromobacter, 24 h, read-out: MIC threshold values for a given antibiotic
# Description: as §1
# (§5) In the next stage of the research, MIC values of a given antibiotic for the investigated strains were determined, meaning the lowest concentration of the drug, expressed in mg/L, determined in vitro, which inhibits the growth of bacteria at a defined inoculum density, within a given time (Hryniewicz et at, 2001). These studies allow for the closer determination of the degree of susceptibility of bacteria to the applied antibiotics.
# (§6) A bacterial suspension was evenly distributed on dishes with ready-to-use MHA medium (Oxoid), and then plastic testing strips (E-tests) soaked with an antibiotic with a concentration gradient were placed thereon. The dishes were incubated at 25-30° C. for 24 h, and the test results were read after this time.
# (§7) The intersection of elliptical zone of inhibition, which appeared around the test strip, with the value indicator on the gradient scale of the strip, determined the lowest concentration of antibiotic, inhibiting growth of the microorganism (MIC). Similarly as in the disc diffusion method, the obtained results were compared with the guidelines contained in the relevant standards.
# [13] = tested on: Arthrobacter sp. strain 1N; assay: Antibiotic MIC by E-test; settings: Arthrobacter, 24 h, read-out: MIC threshold values for a given antibiotic
# Description: as §1, §5, §6, §7
# [14] = tested on: Brevundimonas sp. strain 2N; assay: Antibiotic MIC by E-test; settings: Brevundimonas, 24 h, read-out: MIC threshold values for a given antibiotic
# Description: as §1, §5, §6, §7
# [15] = tested on: Brevundimonas sp. strain 5N; assay: Antibiotic MIC by E-test; settings: Brevundimonas, 24 h, read-out: MIC threshold values for a given antibiotic
# Description: as §1, §5, §6, §7
# [16] = tested on: Brevundimonas sp. strain 6N; assay: Antibiotic MIC by E-test; settings: Brevundimonas, 24 h, read-out: MIC threshold values for a given antibiotic
# Description: as §1, §5, §6, §7
# [17] = tested on: Pseudomonas sp. strain 3G; assay: Antibiotic MIC by E-test; settings: Pseudomonas, 24 h, read-out: MIC threshold values for a given antibiotic
# Description: as §1, §5, §6, §7
# [18] = tested on: Pseudomonas sp. strain 4G; assay: Antibiotic MIC by E-test; settings: Pseudomonas, 24 h, read-out: MIC threshold values for a given antibiotic
# Description: as §1, §5, §6, §7
# [19] = tested on: Stenotrophomonas sp. strain 2L; assay: Antibiotic MIC by E-test; settings: Stenotrophomonas, 24 h, read-out: MIC threshold values for a given antibiotic
# Description: as §1, §5, §6, §7
# [20] = tested on: Stenotrophomonas sp. strain 3N; assay: Antibiotic MIC by E-test; settings: Stenotrophomonas, 24 h, read-out: MIC threshold values for a given antibiotic
# Description: as §1, §5, §6, §7
# [21] = tested on: Stenotrophomonas sp. strain 5L; assay: Antibiotic MIC by E-test; settings: Stenotrophomonas, 24 h, read-out: MIC threshold values for a given antibiotic
# Description: as §1, §5, §6, §7
# [22] = tested on: Stenotrophomonas sp. strain 6L; assay: Antibiotic MIC by E-test; settings: Stenotrophomonas, 24 h, read-out: MIC threshold values for a given antibiotic
# Description: as §1, §5, §6, §7
Structure (SMILES),Size of the growth inhibition zone [1] [mm],Size of the growth inhibition zone ([2]; 24 h) [mm],Size of the growth inhibition zone [3] [mm],Size of the growth inhibition zone [4] [mm],Size of the growth inhibition zone [5] [mm],Size of the growth inhibition zone [6] [mm],Size of the growth inhibition zone [7] [mm],Size of the growth inhibition zone ([8]; 24 h) [mm],Size of the growth inhibition zone [9] [mm],Size of the growth inhibition zone ([10]; 24 h) [mm],"MIC ([13]; strain 1N, E-test) [µg/mL]",MIC [14] [µg/mL],MIC [15] [µg/mL],MIC [16] [µg/mL],MIC [17] [µg/mL],MIC [18] [µg/mL],MIC [19] [µg/mL],MIC [20] [µg/mL],MIC [21] [µg/mL],MIC [22] [µg/mL],other results
"O=C(O)c1cn(C2CC2)c2cc(N3CCNCC3)c(F)cc2c1=O [CIP, ciprofloxacin]",0,0,0,0,0,0,0,0,0,10,≥ 32,≥ 32,≥ 32,≥ 32,≥ 32,≥ 32,≥ 32,≥ 32,4,≥ 32,"Size of the growth inhibition zone ([10]; 48 h): 0 mm; Size of the growth inhibition zone [11]: 0 mm; MIC ([12]; strain 4P, E-test): ≥ 32 µg/mL"
"CC[C@H]1OC(=O)[C@H](C)[C@@H](O[C@H]2C[C@@](C)(OC)[C@@H](O)[C@H](C)O2)[C@H](C)[C@@H](O[C@@H]2O[C@H](C)C[C@H](N(C)C)[C@H]2O)[C@](C)(O)C[C@@H](C)C(=O)[C@H](C)[C@@H](O)[C@]1(C)O [E, erythromycin]",0,0,0,0,0,0,0,0,0,0,256,128,256,256,≥ 256,≥ 256,≥ 256,≥ 256,≥ 256,≥ 256,"Size of the growth inhibition zone [11]: 0 mm; MIC ([12]; strain 4P, E-test): 256 µg/mL"
"CCn1cc(C(=O)O)c(=O)c2cc(F)c(N3CCNCC3)cc21 [NX, norfloxacin]",–,–,–,–,–,–,–,–,–,–,96,256,128,96,192,> 256,128,128,32,128,"MIC ([12]; strain 4P, E-test): 256 µg/mL"
"CC1(C)S[C@@H]2[C@H](NC(=O)Cc3ccccc3)C(=O)N2[C@H]1C(=O)O [P, penicillin G]",0,0,0,0,0,0,0,0,0,0,≥ 32,≥ 32,≥ 32,≥ 32,≥ 32,≥ 32,≥ 32,≥ 32,≥ 32,≥ 32,"Size of the growth inhibition zone [11]: 0 mm; MIC ([12]; strain 4P, E-test): ≥ 32 µg/mL"
"Cc1cc(NS(=O)(=O)c2ccc(N)cc2)no1 [RL, sulfamethoxazole]",0,0,0,0,0,0,0,0,0,0,12,12,≥ 1020,≥ 1020,≥ 1020,≥ 1020,6,12,8,12,"Size of the growth inhibition zone [11]: 0 mm; MIC ([12]; strain 4P, E-test): 12 µg/mL"
"[H]/N=C(/N)N[C@H]1[C@H](O)[C@@H](O)[C@H](O[C@@H]2O[C@@H](C)[C@](O)(C=O)[C@H]2O[C@@H]2O[C@@H](CO)[C@H](O)[C@@H](O)[C@@H]2NC)[C@@H](N/C(N)=N\[H])[C@@H]1O [S, streptomycin]",0,12,0,0,0,10,0,16,0,8,48,384,64,≥ 1020,≥ 1020,≥ 1020,64,384,64,≥ 1020,"Size of the growth inhibition zone ([2]; 48 h): 10 mm; Size of the growth inhibition zone ([8]; 48 h): 10 mm; Size of the growth inhibition zone [11]: 0 mm; MIC ([12]; strain 4P, E-test): 96 µg/mL"
"CO/N=C(\C(=O)N[C@@H]1C(=O)N2C(C(=O)O)=C(CSc3nc(=O)c(=O)[nH]n3C)CS[C@H]12)c1csc(N)n1 [TX, ceftriaxone]",–,–,–,–,–,–,–,–,–,–,≥ 256,≥ 256,≥ 256,≥ 256,≥ 256,≥ 256,≥ 256,≥ 256,≥ 256,≥ 256,MIC [12]: 16 µg/mL
"CN[C@H](CC(C)C)C(=O)N[C@H]1C(=O)N[C@@H](CC(N)=O)C(=O)N[C@H]2C(=O)N[C@H]3C(=O)N[C@H](C(=O)N[C@H](C(=O)O)c4cc(O)cc(O)c4-c4cc3ccc4O)[C@H](O)c3ccc(c(Cl)c3)Oc3cc2cc(c3O[C@@H]2O[C@H](CO)[C@@H](O)[C@H](O)[C@H]2O[C@H]2C[C@](C)(N)[C@H](O)[C@H](C)O2)Oc2ccc(cc2Cl)[C@H]1O [VA, vancomycin]",0,0,0,0,0,0,0,0,0,0,–,–,–,–,–,–,–,–,–,–,Size of the growth inhibition zone [11]: 0 mm; MIC [13]: ≥ 256 µg/mL
